# Data published in article PMC5762686, “Structural ensemble-based docking simulation and biophysical studies discovered new inhibitors of Hsp90 N-terminal domain” (Scientific Reports, 2018).
# Like-named read-outs stand apart in the source and are kept apart here.
# Tests used:
# Hsp90N [1] = system: Hsp90N; design: method as in PMID 27899599; details: PubChem BioAssay database AID: 712; cited from earlier work
# Hsp90N [2] = system: Hsp90N; design: method as in PMID 19519743; details: BindingDB; cited from earlier work
# Hsp90 = system: Hsp90; design: method as in PMID 16854066; details: fluorescence polarization; cited from earlier work
# Hsp90N [3] = molecular target: T1, Hsp90N (Homo sapiens, UniProt P07900); test: Differential scanning fluorimetry (DSF), change of Tm; type: binding; details: apo Tm 44.4 °C, Hsp90N 2 μM, inhibitor 200 μM
# T1 construct: contains DNA corresponding to residues 1–235 of human Hsp90α; made in house; host or cells: Escherichia coli BL21 (DE3)
# Description: We also measured the change in the Tm value using differential scanning fluorimetry (DSF) to support direct binding (Fig. 2C).
# DSF using a RT-PCR system (CFX connect, BioRad) assessed the stability of Hsp90N in the absence and presence of the hit compounds that were identified by 2D NMR[75]. Once Sypro-Orange (5×) was added into the solution of Hsp90N with each hit compound, the fluorescence from the dye was measured with excitation at 492 nm and emission at 610 nm in a temperature-dependent manner from 30 to 90 °C. The concentrations for Hsp90N and inhibitors were 2 and 200 μM, respectively. As a control, DMSO was mixed with the protein, and the fluorescence was measured with an identical procedure. The mid-point of the melting temperature, Tm, was deduced by calculating the temperature that maximizes the differential curve of the profiles.
smiles,measurement,setting,value
CCc1cc(-c2n[nH]cc2-c2ccc3c(c2)OCO3)c(O)cc1O [ZINC18130036],IC50,Hsp90N [1],2000 nM
Oc1ccc(-c2n[nH]c(=S)n2-c2ccccc2)c(O)c1 [ZINC01264822],IC50,Hsp90N [2],0.5 nM
CO[C@H]1/C=C\C=C(/C)C(=O)NC2=CC(=O)C(NCCN(C)C)=C(C[C@@H](C)C[C@H](OC)[C@H](O)[C@@H](C)/C=C(\C)[C@@H]1OC(N)=O)C2=O [17-DMAG],IC50,Hsp90,62 nM
same,elevated Tm values,Hsp90N [3],11.3
Cc1cc(SCC(N)=O)nc(SCC(=O)c2ccccc2)n1 [ZINC00421600],IC50,Hsp90N [1],50000 nM
